Values after ≈ are worked out from the molar mass of the structure shown.
What was measured:
Alternaria alternata = assay: in vitro inhibition assay for volatile antimicrobial compounds (headspace, PDA agar); assay type: cell-based; conditions: volatile headspace exposure
Protocol: [The procedure below names another organism; the source lists this organism under the same test.] (§1) 12-well (6.5 ml volume per well) microtiter plates are used for the in vitro inhibition assay for volatile antimicrobial compounds. A 3-ml volume of full-strength Potato Dextrose Agar (PDA) is added to each well. After cooling, 1 μL of 1×10^5 spores per ml Botrytis cinerea (ATCC #204446) spore suspension is spot pipetted to the agar in the center of the well. Whatman #1 filter disks (1.5 cm; Cat. No. 1001-0155) are placed on the underside of a polyethylene PCR plate sealing film. For determination of the minimum inhibitory concentration (MIC), test compounds are diluted in acetone, in duplicate, and 50 μli of the compound solution is added to disks at concentrations that can vary from 0.001 mg/l to 1142.9 mg/l. The acetone is permitted to evaporate for 5 minutes. The headspace around the Botrytis cinerea inoculum is then sealed inside the well by the film with the adhering disk containing the antimicrobial, anti-decay, anti-spoilage, or pathogen control agent. Plates are inverted to prevent any possibility of the chemical from flaking from the disk and falling onto the inoculated agar.

Penicillium expansum = assay: as above; assay type: cell-based; conditions: volatile headspace exposure
Protocol: [The procedure below names another organism; the source lists this organism under the same test.] as §1

Monilinia fructicola = assay: as above; assay type: cell-based; conditions: volatile headspace exposure
Protocol: [The procedure below names another organism; the source lists this organism under the same test.] as §1

[1] = test system: Botrytis cinerea (ATCC #204446); assay: as above; assay type: cell-based; conditions: Botrytis cinerea, ATCC204446, 72 h, volatile headspace exposure, 3 days at 23° C.
Protocol: as §1

[2] = test system: Botrytis cinerea (ATCC #204446); assay: Strawberry in vivo analysis, volatile bioassay on wound-inoculated strawberry; parameters: species or system Botrytis cinerea on strawberry
Protocol: In order to assess the in vivo activity of volatile antimicrobial compounds, a volatile bioassay is developed using strawberry. Fruit (6 to 8) are placed inside a 1 lb clamshell (Packaging Direct Inc.; Product #4341699) with the calyx facing downward. The strawberry fruit are wound-inoculated by pipetting 20 μL of 1×10^6 spore per ml Botrytis cinerea (ATCC #204446) into a wound approximately 5 mm deep and 2.6 mm in width. The clamshell is placed inside a 2.55 L plastic container (Snapware; Model #1098421). A Whatman #1 filter paper (4.25 cm; Cat. No. 1001-042) is placed on a watchglass, which is then placed on top of the closed clamshell lid. For determination of the MIC, test compounds are diluted in acetone, and 400 μl of the solution is added to disks, in duplicate, in a dose dependent manner (for example 0.4 to 50 mg/liter). The acetone is permitted to evaporate for 5 minutes. The plastic containers are then closed and placed for 3 days at 21° C. Clamshells are then removed from the treatment plastic container and placed into separate larger secondary containers for a further 3 days of evaluation at 21° C. During these 3 days, fruit are evaluated daily for incidence and severity of disease and symptoms of phytotoxicity.

[3] = test system: Escherichia coli (ATCC #25922); assay: in vitro inhibition assay for volatile antimicrobial compounds against bacteria (LB agar); assay type: cell-based; conditions: volatile headspace exposure, 2 days at 23° C.
Protocol: 12-well (6.5 ml volume per well) microtiter plates are used for the in vitro inhibition assay for volatile antimicrobial compounds. A 3-ml volume of full-strength L^B Agar is added to each well. After cooling, 15 μL of Escherichia coli (ATCC #25922) adjusted to an optical density of 0.02 to 0.035, and further diluted 1/10 is pipetted to the center of the agar. The plate is tilted to distribute bacteria uniformly. Whatman #1 filter disks (1.5 cm; Cat. No. 1001-0155) are placed on the underside of a polyethylene PCR plate sealing film. […] The acetone is permitted to evaporate for 5 minutes. The headspace around the Escherichia coli inoculum is then sealed inside the well by the film with the adhering disk containing the antimicrobial, anti-decay, anti-spoilage, or pathogen control agent. Plates are inverted, placed over the treated disks and sealed to prevent any of the chemical from flaking from the disk and falling onto the inoculated agar. After 2 days of incubation at 23° C., cultures were evaluated for colony growth relative to control.

[4] = test system: Botrytis cinerea (ATCC #204446); assay: Grape in vivo analysis, volatile bioassay on inoculated green table grape; parameters: species or system Botrytis cinerea on green table grape
Protocol: In order to assess the in vivo activity of volatile antimicrobial compounds, a volatile bioassay is developed using green table grape. Fruit are removed from the rachis, and 16 to 20 fruit are placed inside a 1 dry pint clamshell (Produce Packaging; Product #03231004KZ) with the stem wound facing upwards. The grapes are inoculated by pipetting 20 μL of 1×10^6 spore per ml Botrytis cinerea (ATCC #204446) into the stem wound. The clamshell is placed inside a 2.55 L plastic container (Snapware; Model #1098421). A Whatman #1 filter paper (4.25 cm; Cat. No. 1001-042) is placed on a watchglass, which is then placed on top of the closed clamshell lid. For determination of the MIC, test compounds are diluted in acetone, and 400 μl of the solution is added to disks, in duplicate, in a dose dependent manner (for example 0.4 to 50 mg/liter). The acetone is permitted to evaporate for 5 minutes. The plastic containers are then closed and placed for 3 days at 21° C. Clamshells are then removed from the treatment plastic container and placed into separate larger secondary containers for a further 3 days of evaluation at 21° C. During these 3 days, fruit are evaluated daily for incidence and severity of disease and symptoms of phytotoxicity.

Glomerella cingulata = assay: in vitro inhibition assay for volatile antimicrobial compounds (headspace, PDA agar); assay type: cell-based; conditions: Colletotrichum gloeosporioides; volatile headspace exposure
[5] = symptoms of phytotoxicity evaluated daily

Structure (SMILES) | EC50 (Alternaria alternata) [µg/mL] | MIC (Alternaria alternata) [µg/mL] | EC50 (Penicillium expansum) [µg/mL] | MIC (Penicillium expansum) [µg/mL] | EC50 (Monilinia fructicola) [µg/mL] | MIC (Monilinia fructicola) [µg/mL] | MIC [1] [µg/mL] | EC50 ([1]; growth relative to control) [µg/mL] | phytotoxicity in strawberry in vivo analysis [2, 5] | antimicrobial activity against Botrytis cinerea in strawberry in vivo analysis ([2]; wound-inoculated, 3 days treatment at 21° C. plus 3 days evaluation) | antimicrobial activity against Escherichia coli (colony growth relative to control) [3] | antimicrobial activity against Botrytis cinerea in grape in vivo analysis ([4]; stem wound inoculated, 3 days treatment at 21° C. plus 3 days evaluation) | phytotoxicity in grape in vivo analysis [4, 5] | EC50 (Glomerella cingulata) [µg/mL] | MIC (Glomerella cingulata) [µg/mL]
c1ccc2c(c1)COB2OCCOB1OCc2ccccc21 [Compound 1, 1,2-bis(benzo[c][1,2]oxaborol-1(3H)-yloxy)ethane] | < 0.6 | 8.9 (≈ 30.3 µM) | 2.5 (≈ 8.51 µM) | 8.9 (≈ 30.3 µM) | 6.8 (≈ 23.1 µM) | 35.7 (≈ 121 µM) | 2.2 (≈ 7.48 µM) | 0.9 (≈ 3.06 µM) | no phytotoxicity | good antimicrobial activity | good antimicrobial activity | good antimicrobial activity | no phytotoxicity | 11.1 (≈ 37.8 µM) | 143 (≈ 486 µM)
CC(C)(COB1OCc2ccccc21)COB1OCc2ccccc21 [Compound 2, 1,1′-((2,2-dimethylpropane-1,3-diyl)bis(oxy))bis(1,3-dihydrobenzo[c][1,2]oxaborole)] | 2.3 (≈ 6.85 µM) | 8.9 (≈ 26.5 µM) | 12.2 (≈ 36.3 µM) | 71.4 (≈ 212 µM) |  |  |  |  |  |  |  |  |  | 9.1 (≈ 27.1 µM) | 143 (≈ 425 µM)
